Source: patent publication US6471974B1, “N-chlorosulfamate compositions having enhanced antimicrobial efficacy” (S.C. Johnson & Son, Inc., priority 1999, dated 2002)
“Also recorded” adds a separate entry of the source.

Legend:
[1] = test system: Staphylococcus aureus (ATCC 25923); assay: Sanitizer Test on glass slides, 5-minute contact time (parallels EPA Non-Food Contact Sanitizer Test DIS/TSS-10); type: cell-based; conditions: S. aureus, dopant to hypochlorite 0.20 to 1.0, 985 ppm TAC
Description: The test method used to evaluate antimicrobial efficacy was the Sanitizer Test described below.
(§1) Sanitizer Test: Glass slides measuring 18×36 mm were washed in a dishwasher, placed in glass petri dishes on 2 pieces of Whatman no. 2 filter paper and autoclaved. The slides were inoculated with a 10 μl sterile bacterial loop. The inoculum was spread over the upper surface of the slide being careful not to exceed the edges of the slide. The inoculum was a 24 hour culture having a concentration of approximately 10^9 organisms per ml. Following inoculation, the slides were incubated at 35° C. for 30±5 minutes to allow the slides to dry. The test product was then sprayed liberally onto the test surface (6 sprays/slide—approximately 6 ml of product) and the slides were allowed to stand for the desired contact time. The slides were removed from the petri dish using flamed forceps after exposure to the test product for the specified contact time and placed into test tubes containing 15.0 ml of the desired neutralizer for neutralization of the test product. Both 2× Letheen Broth (Tween 80 & Lecithin) and Dey/Engley neutralizing broths were separately utilized. Test bacteria was recovered by vortexing each test tube for 15 seconds. Serial dilutions were made using diluent. The pour plate technique using Tryptic Soy Agar was used to obtain plate counts. Parallel tests were run using a citrate-buffered (pH 5) solution of the dopant at a concentration equal to that in the doped test solutions or a 0.01% solution of Triton X-100 (isooctylphenoxy-polyethoxyethanol with 9-10 moles oxyethylene) in an identical manner to serve as controls. Blank parallel controls, using sterile, de-ionized water as the test product, were also evaluated.
A 5-minute contact time using-a glass slide test surface was employed.
(§2) The test products used are described below.

[2] = Long-term stability at 40° C., NaOCl by iodometric titration and pH; type: physicochemical; conditions: up to Day 58
Description: Preparation of a stock 3.0% stabilized hypochlorite solution (0.75 to 1.0 mole ratio of sulfamate to NaOCl, pH 4.9 citric acid buffer): Anhydrous citric acid (210.0 g), sulfamic acid (88.0 g) and sodium hydroxide (93.0 g) were dissolved in deionized water (1897.54 g). The reaction mixture was allowed to cool to room temperature (approximately 1 hour).
All stabilized hypochlorite-containing test formulas were prepared by further dilution of the 3.0% stabilized NaOCl stock solution. Where applicable, the appropriate amount of each dopant was added to a known volume of diluted stock solution. Solutions containing varying mole ratios of sulfamate to NaOCl (1.0 to 1.0 and 1.5 to 1.0) were prepared by adding solid sodium sulfamate, as required, to 1.0 liter portions of the diluted stock solution. For all “doped” formulas, the ratio of NaOCl to dopant was 1.0:0.20.
Long-term stability samples were stored in a 40° C. incubator. After cooling to room temperature (23° C.) the concentration of NaOCl was determined via iodometric titration. The experimentally determined concentration of NaOCl is expressed in units of molarity (M). The recorded pH of each formula is shown in parentheses.

[3] = test system: Klebsiella pneumoniae (ATCC 4352); assay: Sanitizer Test on glass slides, 1-minute contact time; type: cell-based; conditions: K. pneumoniae, 100 ppm TAC
Description: as §1, §2

Staphylococcus aureus = assay: as above; type: cell-based; conditions: S. aureus, 500 and 200 ppm TAC
Description: as §1
However, a 1-minute contact time using a glass slide test surface was employed. Staphylococcus aureus was the test organism used. The test products that were used are described below.
Results are reported as a bacterial reduction (log reduction) of the formulation

Structure (SMILES) | antimicrobial enhancing effect of dopant added to base stabilized hypochlorite composition (in words) [1] | effect of added dopant on long term stability of sulfamate-stabilized hypochlorite solutions (in words) [2] | antimicrobial effectiveness of stabilized hypochlorite solutions containing the dopant (in words) [3] | antimicrobial effectiveness of stabilized hypochlorite solutions containing the dopant (in words) (Staphylococcus aureus)
O=C1NC2NC(=O)NC2N1 (stereo not shown) [Glycoluril, glycoluril] | modest antimicrobial benefit |  |  | 
NS(=O)(=O)c1ccc(C(=O)O)cc1 [4-carboxybenzenesulfonamide] | significantly enhances the antimicrobial activity |  |  | 
Cc1ccc(S(N)(=O)=O)cc1 [toluenesulfonamide] | significantly enhances the antimicrobial activity; also recorded: antimicrobial enhancing ability |  |  | 
CC1(C)NC(=O)NC1=O [5,5-dimethylhydantoin] | significantly enhances the antimicrobial activity | does not alter the long termn stability | have antimicrobial effectiveness against K. pneumoniae | lowest levels of enhanced antimicrobial efficacy
O=C1CCC(=O)N1 [succinimide] | significantly enhances the antimicrobial activity |  | have antimicrobial effectiveness against K. pneumoniae | have antimicrobial effectiveness
NS(=O)(=O)c1ccccc1 [benzenesulfonamide] | significantly enhances the antimicrobial activity | does not alter the long termn stability | have antimicrobial effectiveness against K. pneumoniae | most effective
Nc1nc(N)nc(N)n1 [melamine] | do not appear to have an antimicrobial enhancing effect |  |  | 
O=c1[nH]c(=O)[nH]c(=O)[nH]1 [cyanuric acid] | do not appear to have an antimicrobial enhancing effect |  |  | 
